# “Also recorded” adds a separate entry of the source.
# Legend:
# IL-1β [1] = experiment: Plasma (systemic) IL-1β by ELISA after tibial surgery; format: in vivo; details: wild type mice, minocycline 40 mg/kg i.p., enrofloxacin 10 mg/kg or IL-1Ra 100 mg/kg given prior to surgery, vs surgery alone
# Source text: Mice were subjected to an open tibial fracture of the left hind paw with intramedullary fixation in aseptic conditions under general anaesthesia with isoflurane and analgesia with buprenorphineas previously described^18. Other groups of animals were not subjected to any intervention (naïve), or received anesthetic/analgesia alone, or underwent surgery with concurrent administration of minocycline, enrofloxacin, or IL-1 receptor antagonist (IL-1Ra). (For further details please refer to supplemental methods).
# (§1) IL-6, TNF-α and IL-1β were measured by ELISA^19 (Biosource, CA; Bender Medsystem, CA, respectively). Hippocampal IL-1β was measured by ELISA (Bender Medsystem, CA), as previously described^20. To confirm reliability of dilution linearity and spike recovery cytokine measurement were also performed in mice in which inflammation was induced with i.p. LPS (0111:B4, Invivogen, CA). (For further details please refer to supplemental methods).
# Mice were randomly assigned to the following groups: surgery under general anesthesia (S), surgery under general anesthesia plus minocycline (M), surgery under general anesthesia plus enrofloxacin (E), surgery under general anesthesia plus interleukin-1 receptor antagonist (IL-1Ra) (I), surgery in IL1R^−/− mice under general anesthesia (K), general anesthesia without surgery (A), and no intervention (naïve wild-type, or naïve IL1R^−/−). Under aseptic conditions, groups of mice were subjected to an open tibial fracture of the left hind paw with an intramedullary fixation as previously described^2. Briefly, isoflurane (Abbot Laboratories Ltd., Queensborough, Kent, UK) 2.1% in air (1.5 MAC)^3 and buprenorphine (Reckitt Benckiser Healthcare Ltd, Hull, UK) 0.1 mg/kg subcutaneously (sc), were given to provide both surgical anesthesia and extended post-operative analgesia for the surgical intervention and post-surgical recovery. After shaving the overlying skin and disinfecting with chlorhexidine gluconate 0.5% and isopropyl alcohol 70% (PDI, Orangeburg, NY, USA) a fracture of the tibial shaft was created under direct vision. […]
# IL-1β [2] = experiment: Hippocampal IL-1β by ELISA after tibial surgery; format: in vivo; details: wild type mice, 6 h (minocycline, enrofloxacin) or 24 h (IL-1Ra) after surgery
# Procedure: as §1
# Under terminal anesthesia with pentobarbital, each mouse was euthanized and the brain quickly removed following decapitation. The hippocampus was dissected under microscopy on a frosted glass plate placed on top of crushed ice, then snap frozen and stored at −80° C. until processing. Each hippocampus was added to Iscove's culture medium containing 5% fetal calf serum (FCS) and a cocktail of enzyme inhibitors (in mM: 100 amino-n-caproic acid, 10 EDTA, 5 benzamidine-HCl, and 0.2 phenylmethylsulfonyl fluoride). […] IL-1β was measured in the supernatant from hippocampal extracts, which were appropriately diluted prior to measurement to fall on the linear portion of the sigmoid curve, using a commercially available ELISA kit (Bender Medsystem, CA). […]
# Cytokine analyses: Systemic and hippocampal IL-1β was measured by ELISA (Bender Medsystem, CA; 1.2 pg/ml of sensitivity), as previously described (12).
substance,measurement,setting,value
"IL-1Ra: IL-1 receptor antagonist (Amgen, Anakinra)","Plasma IL-1β after surgery, effect of treatment",IL-1β [1],did not increase circulating IL-1β; also recorded: Surgery did not induce a significant increase of IL-1β at 24 h
same,"Hippocampal IL-1β expression after surgery, effect of treatment",IL-1β [2],"did not increase hippocampal microgliosis (FIG. 6, A-B-C) or expression of IL-1β; also recorded: Hippocampal IL-1β did not significantly increase"

# Reference: patent publication US12325744B2, “Methods for reducing post-operative cognitive dysfunction (POCD)” (The Kennedy Trust for Rheumatology Research, priority 2010, dated 2025)
